Where two headings read alike, the source gives them in different places.
Assays:
[1] = tested on: brain aromatase (cyp19a1b); assay: cyp19a1b gene expression (qPCR) in exposed zebrafish embryos; assay type: in vivo, zebrafish (Danio rerio)
aromatase (cyp19a1) = assay: cyp19a gene expression (qPCR) in exposed zebrafish embryos; assay type: in vivo, zebrafish (Danio rerio); conditions: exposed 48–120 hpf; Figure S1
cyp19a1b - fluorescence = conditions: 0-96 h, cited from earlier work; for LogEC50 (cyp19a1b - fluorescence): log of EC50 in μM
cyp19a1b - mRNA [2] = conditions: cited from earlier work; for LogEC50 (cyp19a1b - mRNA): log of EC50 in μM
vtg1 - mRNA = conditions: cited from earlier work
cyp19a1b - mRNA [3] = conditions: cited from earlier work
cyp19a1b - mRNA [4] = conditions: 14 days (adults), cited from earlier work
vtg - blood [5] = conditions: 8 days (adults), cited from earlier work
vtg - blood [6] = conditions: 21 days (adults), cited from earlier work; for EC50: read-out: EC50 (vtg - blood); for LogEC50 (vtg - blood): log of EC50 in μM
vtg - blood [7] = conditions: cited from earlier work; for LogEC50 (vtg - blood): log of EC50 in μM
vtg1 - fluorescence = conditions: 21 days (adults), cited from earlier work
vitellogenin 1 (vtg1) = assay: vtg1 gene expression (qPCR) in exposed zebrafish embryos; conditions: for EC50: Danio rerio, read-out: EC50 vtg1; for LogEC50 (vtg1 mRNA): log of EC50 in μM, 48-120 h, our study
thyroid peroxidase (tpo) = assay: tpo gene expression (qPCR) in exposed zebrafish embryos; assay type: in vivo, zebrafish (Danio rerio); conditions: for EC50: Danio rerio
carp hepatocytes = tested on: carp hepatocytes; parameters: method as in PMID 10478856; conditions: concentrations up to 100 µM; cited from earlier work
cyp19a1b - vtg1 mRNA = assay: estrogenic markers considered together (cyp19a1b - vtg1 mRNA), zebrafish embryos; conditions: Danio rerio, read-out: EC50 (cyp19a1b - vtg1 mRNA), class symbol
thyroid receptor α (trα) = assay: trα gene expression (qPCR) in exposed zebrafish embryos; assay type: in vivo, zebrafish (Danio rerio); conditions: exposed 48–120 hpf
transthyretin (ttr) = assay: ttr gene expression (qPCR) in exposed zebrafish embryos; assay type: in vivo, zebrafish (Danio rerio); conditions: for EC50: Danio rerio
[8] = tested on: iodothyronine deiodinase 2 (dio2); assay: dio2 gene expression (qPCR) in exposed zebrafish embryos; assay type: in vivo, zebrafish (Danio rerio); conditions: for EC50: Danio rerio
[9] = acute toxicity test from 48–120 hpf based on the OECD FET test; assay type: in vivo, zebrafish (Danio rerio); conditions: in vivo; zebrafish embryos exposed 48–120 hpf
From the text: Twenty embryos per treatment were exposed to 5 concentrations of compound of interest in a 10× dilution factor from 48–120 hpf, which is the experimental time in which EDCs will be screened posteriorly. Embryos were exposed from 48–120 hpf rather than 0–96 hpf or 0–120 hpf to avoid unspecific toxicity outside of the EDC testing period, which have been chosen on the basis that endocrine pathways, e.g., thyroid metabolism, are not fully functional until 40–55 hpf in zebrafish embryos. Stock solutions of chemicals to be tested were freshly prepared in exposure medium. The highest concentration for each compound was selected according to its water solubility (Table S1). Exposures were performed in glass vessels to assure maximum bioavailability for hydrophobic compounds, and medium was not exchanged during the experiment.

dio2 - mRNA = tested on: dio2 - mRNA; parameters: method as in earlier work; conditions: 0-120 h, ref [33] (supplement list), cited from earlier work
[10] = tested on: iodothyronine deiodinase 1 (dio1); assay: dio1 gene expression (qPCR) in exposed zebrafish embryos; assay type: in vivo; conditions: Danio rerio; exposed 48–120 hpf; Figure 4; no unit printed for this gene
pax8 = pax8 gene expression (qPCR) in exposed zebrafish embryos; assay type: in vivo, zebrafish (Danio rerio); conditions: exposed 48–120 hpf
[11] = E2 1 µM alone, rescue experiment
[12] = log of EC50 in μM, 48-120 h, our study
[13] = ref [3] (supplement list: Brion 2012)
[14] = exogenous T3, 48–120 hpf, downregulated

Structure (SMILES): C[C@]12CC[C@@H]3c4ccc(O)cc4CC[C@H]3[C@@H]1CC[C@@H]2O [E2, 17β-estradiol]
- EC50 ([1]; Danio rerio, zebrafish embryos exposed 48–120 hpf, mRNA by qPCR): 90 nM
- FI cyp19a1b, single exposure [1, 11]: 64.54
- LogEC50 (cyp19a1b mRNA) [1, 12]: -1.046
- response of cyp19a (aromatase (cyp19a1)): no response
- EC50 (cyp19a1b - fluorescence; ref [2] (supplement list: Petersen 2013)): 3.4 nM
- EC50 (cyp19a1b - fluorescence; [13]): 2.4 nM
- LogEC50 (cyp19a1b - fluorescence) (cyp19a1b - fluorescence; ref [2] (supplement list)): -2.469
- LogEC50 (cyp19a1b - fluorescence) (cyp19a1b - fluorescence; ref [3] (supplement list)): -2.62
- EC50 (cyp19a1b - mRNA [2]; 0-72 h, * mean of an approximate range, ref [4] (supplement list: Lassiter 2007)): ~10 nM
- EC50 (cyp19a1b - mRNA [2]; 0-96 h, ref [3] (supplement list: Brion 2012)): 4.1 nM
- EC50 (cyp19a1b - mRNA [2]; 2-48 h, * mean of an approximate range, ref [6] (supplement list: Kishida 2001)): ~10 nM
- EC50 (cyp19a1b - mRNA [2]; 72-96 h, * mean of an approximate range, ref [5] (supplement list: Chung 2011)): ~5.5 nM
- LogEC50 (cyp19a1b - mRNA) (cyp19a1b - mRNA [2]; 0-72 h, ref [4] (supplement list)): -2
- LogEC50 (cyp19a1b - mRNA) (cyp19a1b - mRNA [2]; 0-96 h, ref [3] (supplement list)): -2.387
- LogEC50 (cyp19a1b - mRNA) (cyp19a1b - mRNA [2]; 2-48 h, ref [6] (supplement list)): -2
- LogEC50 (cyp19a1b - mRNA) (cyp19a1b - mRNA [2]; 72-96 h, ref [5] (supplement list)): -2.26
- EC50 (vtg1 - mRNA; 0-120 h, * mean of an approximate range, ref [11] (supplement list: Muncke 2006), read-out: EC50 (vtg1 - mRNA)): ~30 nM
- EC50 (vtg1 - mRNA; 0-168 h, * mean of an approximate range, ref [10] (supplement list: Chen 2018), read-out: EC50 (vtg1 - mRNA)): ~180 nM
- LogEC50 (vtg1 - mRNA) (vtg1 - mRNA; log of EC50 in μM, 0-120 h, ref [11] (supplement list)): -1.523
- LogEC50 (vtg1 - mRNA) (vtg1 - mRNA; log of EC50 in μM, 0-168 h, ref [10] (supplement list)): -0.757
- EC50 (cyp19a1b - mRNA), class symbol (cyp19a1b - mRNA [3]; 7 days (adults), ref [7] (supplement list: Hinfray 2006)): n.e.
- EC50 (cyp19a1b - mRNA), class symbol (cyp19a1b - mRNA [3]; 21 days (adults), ref [8] (supplement list: Kallivretaki 2006)): n.e.
- EC50 (cyp19a1b - mRNA [4]; effects only detected in males, ref [9] (supplement list: Halm 2002)): 0.4 nM
- LogEC50 (cyp19a1b - mRNA) (cyp19a1b - mRNA [4]; log of EC50 in μM, males, ref [9] (supplement list)): -3.398
- EC50 (vtg - blood [5]; ref [12] (supplement list: Rose 2002)): 0.2 nM
- LogEC50 (vtg - blood) (vtg - blood [5]; log of EC50 in μM, ref [12] (supplement list)): -3.699
- EC50 (vtg - blood [6]; * mean of an approximate range, ref [16] (supplement list: Parks 1999)): ~0.6 nM
- EC50 (vtg - blood [6]; ref [15] (supplement list: Dammann 2011)): 0.09 nM
- LogEC50 (vtg - blood) (vtg - blood [6]; ref [15] (supplement list)): -4.046
- LogEC50 (vtg - blood) (vtg - blood [6]; ref [16] (supplement list)): -3.222
- EC50 (vtg - blood [7]; 14 days (adults), ref [14] (supplement list: Brian 2005)): 0.09 nM
- EC50 (vtg - blood [7]; 24 days (adults), ref [13] (supplement list: Van den Belt 2004)): 0.6 nM
- LogEC50 (vtg - blood) (vtg - blood [7]; 14 days (adults), ref [14] (supplement list)): -4.046
- LogEC50 (vtg - blood) (vtg - blood [7]; 24 days (adults), ref [13] (supplement list)): -3.222
- EC50 (vtg1 - fluorescence; ref [17] (supplement list: Zeng 2005)): ~0.55 nM
- LogEC50 (vtg1 - fluorescence) (vtg1 - fluorescence; log of EC50 in μM, ref [17] (supplement list)): -3.26
- EC50 (vitellogenin 1 (vtg1)): 190 nM
- FI vtg1, single exposure (vitellogenin 1 (vtg1); [11]): 394.39
- LogEC50 (vtg1 mRNA) (vitellogenin 1 (vtg1)): -0.7212

Structure (SMILES): O=S1OCC2C(CO1)C1(Cl)C(Cl)=C(Cl)C2(Cl)C1(Cl)Cl (stereo not drawn) [END, endosulfan]
- effect on expression of cyp19a1b ([1]; exposed 48–120 hpf): not affecting expression
- EC50 (thyroid peroxidase (tpo); read-out: EC50 tpo): 60 nM
- EC50 (cyp19a1b - fluorescence), class symbol (cyp19a1b - fluorescence; [13]): n.e.
- EC50 (vtg1 - mRNA; 6-96 h, ref [25] (supplement list: Moon 2016), read-out: EC50 (vtg mRNA)): 1960 nM
- LogEC50 (vtg mRNA) (vtg1 - mRNA; log of EC50 in μM, 6-96 h, ref [25] (supplement list)): 0.2923
- induction of vitellogenesis in carp hepatocytes (carp hepatocytes): not able to induce vitellogenesis
- FI vtg1 at the most effective concentration (vitellogenin 1 (vtg1); 4 µM, compared to controls, downregulation): 0.35
- EC50 (vitellogenin 1 (vtg1)): 330 nM
- LogEC50 (vtg1 mRNA) (vitellogenin 1 (vtg1)): -0.4815
- downregulation of vtg1 expression compared to controls (vitellogenin 1 (vtg1); most effective concentration (4 µM)): more than 50%
- EC50 (cyp19a1b - vtg1 mRNA): > 4000 nM

Structure (SMILES): CCCCC(O)(Cn1cncn1)c1ccc(Cl)cc1Cl (stereo not drawn) [HEX, hexaconazole]
- effect on trα expression (thyroid receptor α (trα)): remained unaltered
- effect on ttr expression (transthyretin (ttr); exposed 48–120 hpf): remained unaltered
- EC50 ([8]; zebrafish embryos exposed 48–120 hpf, mRNA by qPCR, read-out: EC50 dio2): 2220 nM
- LogEC50 (dio2 - mRNA) [8, 12]: 0.3464
- LC50 [9]: 23400 nM
- EC50 (dio2 - mRNA; * mean of an approximate range): ~3980 nM
- LogEC50 (dio2 - mRNA) (dio2 - mRNA; log of EC50 in μM): 0.5999

Structure (SMILES): N[C@@H](Cc1cc(I)c(Oc2ccc(O)c(I)c2)c(I)c1)C(=O)O [T3, 3,3′,5-triiodo-L-thyronine]
- EC50 (thyroid peroxidase (tpo); read-out: EC50 tpo, exposed 48–120 hpf, Figure 4, upregulated): 9.93 nM
- EC50 (thyroid peroxidase (tpo); read-out: EC50 tpo, exposure 48–120 hpf, Figure 1, comparison of exposure windows, 48–120 hpf): 4.09 nM
- EC50 (thyroid peroxidase (tpo); read-out: EC50 tpo, zebrafish embryos exposed 48–120 hpf, mRNA by qPCR): 10 nM
- effect on tpo expression, exposure 0–96 hpf (thyroid peroxidase (tpo); embryos exposed from 0–96 hpf): slight decrease
- FI tpo (thyroid peroxidase (tpo); exogenous T3, 48–120 hpf, upregulated): 4.11
- EC50 (transthyretin (ttr); read-out: EC50 ttr, exposed 48–120 hpf, Figure 4, downregulated): 0.31 nM
- EC50 (transthyretin (ttr); read-out: EC50 ttr, exposure 0–96 hpf, Figure 1, comparison of exposure windows, 0–96 hpf): 0.49 nM
- EC50 (transthyretin (ttr); read-out: EC50 ttr, exposure 48–120 hpf, Figure 1, comparison of exposure windows, 48–120 hpf): 0.32 nM
- EC50 (transthyretin (ttr); read-out: EC50 ttr, zebrafish embryos exposed 48–120 hpf, mRNA by qPCR): 0.3 nM
- FI ttr (transthyretin (ttr); [14]): 0.49
- EC50 ([8]; read-out: EC50 dio2, exposed 48–120 hpf, Figure 4, downregulated): 0.28 nM
- EC50 ([8]; read-out: EC50 dio2, exposure 0–96 hpf, Figure 1, comparison of exposure windows, 0–96 hpf): 6.81 nM
- EC50 ([8]; read-out: EC50 dio2, exposure 48–120 hpf, Figure 1, comparison of exposure windows, 48–120 hpf): 1.23 nM
- EC50 ([8]; read-out: EC50 dio2, zebrafish embryos exposed 48–120 hpf, mRNA by qPCR): 0.3 nM
- FI dio2 [8, 14]: 0.26
- EC50 [10]: 3.58 nM
- response of pax8 (pax8): lack of response
- LC50 [9]: 6000 nM
